# In patent publication US20230355594A1, “TOPICAL OPHTHALMOLOGICAL COMPOSITIONS” (ADS THERAPEUTICS LLC, priority 2020, published 2023):
# Values joined by “and” are separate entries in the source; they are usually repeats but may differ in a detail not shown here. Equal values may be shown once. Read-outs that look alike come from different tables or passages of the source.
# Conditions: for Atropine concentraion, Observed stable concentration after 10X serial dilution of the saturating concentration: successive 10X dilutions
# [1] = 99.25% F6H8, 0.75% phenylethyl alcohol
compound,measurement,setting,value
CN1[C@@H]2CC[C@H]1C[C@@H](OC(=O)C(CO)c1ccccc1)C2 (stereo partly shown) [atropine],"Atropine concentraion, Measured saturating concentraion by HPLC/UV","98.00% F6H8, 2.00% isopropanol",0.153 w/w %
same,"Atropine concentraion, Measured saturating concentraion by HPLC/UV","99.25% F6H8, 0.75% ethanol",0.108 w/w %
same,"Atropine concentraion, Observed stable concentration after 10X serial dilution of the saturating concentration","99.25% F6H8, 0.75% ethanol",0.0108 w/w % and 0.00108 w/w % and 0.000108 w/w %
same,"Atropine concentraion, Measured saturating concentraion by HPLC/UV","99.25% F6H8, 0.75% isopropanol",0.082 w/w %
same,"Atropine concentraion, Observed stable concentration after 10X serial dilution of the saturating concentration","99.25% F6H8, 0.75% isopropanol",0.0082 w/w % and 0.00082 w/w % and 0.000082 w/w %
same,"Atropine concentraion, Measured saturating concentraion by HPLC/UV",[1],0.085 w/w %
same,"Atropine concentraion, Observed stable concentration after 10X serial dilution of the saturating concentration",[1],0.0085 w/w % and 0.00085 w/w % and 0.000085 w/w %
same,"Atropine concentraion, Measured saturating concentraion by HPLC/UV","99.50% F6H8, 0.50% ethanol",0.089 w/w %
same,"Atropine concentraion, Measured saturating concentraion by HPLC/UV","99.50% F6H8, 0.50% isopropanol",0.055 w/w %
same,"Atropine concentraion, Measured saturating concentraion by HPLC/UV","99.50% F6H8, 0.50% phenylethyl alcohol",0.055 w/w %
same,"Atropine concentraion, Measured saturating concentraion by HPLC/UV","99.75% F6H8, 0.25% ethanol",0.031 w/w %
same,"Atropine concentraion, Measured saturating concentraion by HPLC/UV","99.75% F6H8, 0.25% isopropanol",0.046 w/w %
same,"Atropine concentraion, Measured saturating concentraion by HPLC/UV","99.75% F6H8, 0.25% phenylethyl alcohol",0.043 w/w %
